Experimental data from US20030186345A1, “Macromolecular enzyme substrates” (priority 2003, published 2003).
One block for each compound: values may come before it. *1 amine or outer side, *2 acyl side, *3 side chain or, on linkers, in order; H or OH if unused. Where a SMILES comes first, the peptide text is derived from it. [ ]: non-standard residue; d: D form. The star is where a group is joined. pNA = O=[N+]([O-])c1ccc(N*)cc1; Suc = O=C(CCC(=O)[*:2])[*:1]

Columns and labels:
trypsin = target: T1, trypsin (Bos taurus, UniProt P00760); experiment: Inhibition of substrate cleavage by α2-macroglobulin, trypsin; assay type: biochemical, bovine; details: excess inhibitor
T1 construct: purchased Worthington Biochemicals Co. (trypsin); Calbiochem (α2-macroglobulin)
T1 sequence (P00760 24-246): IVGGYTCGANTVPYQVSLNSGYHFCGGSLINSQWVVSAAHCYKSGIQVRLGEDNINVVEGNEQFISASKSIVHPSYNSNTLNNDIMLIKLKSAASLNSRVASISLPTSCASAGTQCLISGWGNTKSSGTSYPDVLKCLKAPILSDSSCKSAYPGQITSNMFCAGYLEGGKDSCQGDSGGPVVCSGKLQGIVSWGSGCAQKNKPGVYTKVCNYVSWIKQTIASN
Procedure: (§2) Measurements of protease activity at 25° C. or 37° C. were performed and analyzed as previously described (Hortin and Trimpe, J. Biol. Chem. 266:6866-6871, 1991) with a Cobas FARA analyzer (Roche Diagnostic Systems, Somerville, N.J.). […] Kinetic parameters were calculated from initial rates of reactions using Lineweaver-Burke plots. […] These reactions were performed in 100 mM tris(hydroxymethyl)-aminomethane pH 7.8 with 10 mm CaCl2. Substrate concentration were determined by absorbance at 342 nm, using an extinction coefficient of 8,260 mol^−1 and several concentrations were confirmed by absorbance measures at 405 or 410 nm after substrate hydrolysis, with extinction coefficient of 9,900 or 8,600 mol^−1, respectively, for the p-nitroaniline product (Lottenberg and Jackson, Biochim. Biophys. Acta 742:558-564, 1983). […] Trypsin concentration was estimated based on weight, assuming 100% activity. For studies of trypsin and thrombin, α2-macro-globulin was pretreated with a 200-fold molar excess of p-amidinophenylmethyl-sulfonylfluoride in order to inactivate any protease trapped within the inhibitor and left at 4° C. for 72 hours before use to allow complete decay of the sulfonylfluoride.

thrombin [1] = target: T2, thrombin (Homo sapiens, UniProt P00734); experiment: Cleavage of pNA substrates by thrombin, kinetic parameters; assay type: biochemical; set-up: Human thrombin, bovine chymotrypsin; purchased Sigma Chemical Co. (St. Louis, Mo.); details: 37° C.; means of triplicates
Procedure: Measurements of protease activity at 25° C. or 37° C. were performed and analyzed as previously described (Hortin and Trimpe, J. Biol. Chem. 266:6866-6871, 1991) with a Cobas FARA analyzer (Roche Diagnostic Systems, Somerville, N.J.). […] Kinetic parameters were calculated from initial rates of reactions using Lineweaver-Burke plots. […] These reactions were performed in 100 mM tris(hydroxymethyl)-aminomethane pH 7.8 with 10 mm CaCl2. Substrate concentration were determined by absorbance at 342 nm, using an extinction coefficient of 8,260 mol^−1 and several concentrations were confirmed by absorbance measures at 405 or 410 nm after substrate hydrolysis, with extinction coefficient of 9,900 or 8,600 mol^−1, respectively, for the p-nitroaniline product (Lottenberg and Jackson, Biochim. Biophys. Acta 742:558-564, 1983). Molar concentration of chymotrypsin was determined by active site titration with p-nitrophenyl guanidinobenzoate and thrombin concentrations by titration with highly purified hirudin.

chymotrypsin = chymotrypsin (Bos taurus, UniProt P00766); experiment: Inhibition of substrate cleavage by α2-macroglobulin, chymotrypsin
Procedure: Measurements of protease activity at 25° C. or 37° C. were performed and analyzed as previously described (Hortin and Trimpe, J. Biol. Chem. 266:6866-6871, 1991) with a Cobas FARA analyzer (Roche Diagnostic Systems, Somerville, N.J.). […] Kinetic parameters were calculated from initial rates of reactions using Lineweaver-Burke plots. […] These reactions were performed in 100 mM tris(hydroxymethyl)-aminomethane pH 7.8 with 10 mm CaCl2. Substrate concentration were determined by absorbance at 342 nm, using an extinction coefficient of 8,260 mol^−1 and several concentrations were confirmed by absorbance measures at 405 or 410 nm after substrate hydrolysis, with extinction coefficient of 9,900 or 8,600 mol^−1, respectively, for the p-nitroaniline product (Lottenberg and Jackson, Biochim. Biophys. Acta 742:558-564, 1983). Molar concentration of chymotrypsin was determined by active site titration with p-nitrophenyl guanidinobenzoate and thrombin concentrations by titration with highly purified hirudin. Trypsin concentration was estimated based on weight, assuming 100% activity. For studies of trypsin and thrombin, α2-macro-globulin was pretreated with a 200-fold molar excess of p-amidinophenylmethyl-sulfonylfluoride in order to inactivate any protease trapped within the inhibitor and left at 4° C. for 72 hours before use to allow complete decay of the sulfonylfluoride.

salivary amylase [2] = target: T3, salivary amylase (Homo sapiens, UniProt P0DUB6); experiment: Amylase assay, Km determination, salivary amylase; assay type: biochemical; details: 37° C.; HEPES buffer pH 7.15
T3 construct: purchased Sigma (St. Louis, Mo.)
T3 sequence (P0DUB6 16-511): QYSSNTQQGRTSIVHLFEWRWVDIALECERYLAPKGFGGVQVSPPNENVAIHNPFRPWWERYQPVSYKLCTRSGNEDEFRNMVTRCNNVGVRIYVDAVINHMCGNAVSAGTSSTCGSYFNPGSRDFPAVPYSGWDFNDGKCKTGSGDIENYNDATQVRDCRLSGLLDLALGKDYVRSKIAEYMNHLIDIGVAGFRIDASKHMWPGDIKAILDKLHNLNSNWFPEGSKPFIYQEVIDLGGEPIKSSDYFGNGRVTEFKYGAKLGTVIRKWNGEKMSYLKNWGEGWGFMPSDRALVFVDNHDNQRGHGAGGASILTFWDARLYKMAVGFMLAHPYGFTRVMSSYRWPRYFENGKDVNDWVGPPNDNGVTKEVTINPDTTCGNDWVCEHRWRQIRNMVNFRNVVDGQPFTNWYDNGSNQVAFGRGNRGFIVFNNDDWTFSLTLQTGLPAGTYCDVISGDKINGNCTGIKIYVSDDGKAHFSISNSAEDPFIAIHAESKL
Procedure: (§1) Amylase assays using oligosaccharide substrates were automated using a Cobas Fara analyzer (Roche, Basel, Switzerland). Unless indicated, assay temperature was 37° C., and absorbance changes were measured at 405 nm every minute over a 20 minute period. Assay buffer was either 52.5 mmol/L 4-(2-hydroxyethyl)-1-piperazine-ethanesulfonic acid (HEPES) buffer, pH 7.15, 87 mmol/L sodium chloride, 12.6 mmol/L magnesium chloride, 0.075 mmol/L calcium chloride (HEPES buffer) or 50 mmol/L MES, pH 6.0, 350 mmol/L sodium chloride, 6 mmol/L calcium acetate, 900 mmol/L KSCN (MES buffer). Amylases were diluted into assay buffer containing 1 mg/mL rabbit albumin. Final reaction volumes were 200 μL and consisted of 3 solutions, R1, R2, and R3. […] Depending upon the assay, R2 and R3 contained either amylase or substrate. R1 and R2 solutions were mixed for 10 seconds prior to the addition of R3. For immunoinhibition studies, antibodies were preincubated with amylase (R2) for 30 minutes at room temperature prior to the addition of substrate (R3). Unless indicated, final concentrations of MABs were 10 mg/L. Reaction blanks were determined by measuring the absorbance of substrate or enzyme alone at 405 nm. When EtG7pNP or mPEG-EtG7pNP were used as substrates, α-glucosidase was included in the blank measurement. Differences between the test samples and reagent blanks were determined. Activity of stock solutions of amylase was based on activity measured with a Hitachi 917 analyzer using a Roche kit (Cat. No 1876473) (Indianapolis, Ind.) which uses EtG7pNP as the substrate. For Km determinations, 4 or 5 different substrate concentrations (0.05 mmol/L to 6 mmol/L) with salivary (4-20 U/L) or pancreatic (4-40 U/L) amylase were used.

pancreatic amylase [3] = target: T4, pancreatic amylase (Homo sapiens, UniProt P04746); experiment: Amylase assay, Km determination, pancreatic amylase; assay type: biochemical; details: 37° C.; HEPES buffer pH 7.15
T4 construct: purchased Scripps Laboratories (San Diego, Calif.)
T4 sequence (P04746 16-511): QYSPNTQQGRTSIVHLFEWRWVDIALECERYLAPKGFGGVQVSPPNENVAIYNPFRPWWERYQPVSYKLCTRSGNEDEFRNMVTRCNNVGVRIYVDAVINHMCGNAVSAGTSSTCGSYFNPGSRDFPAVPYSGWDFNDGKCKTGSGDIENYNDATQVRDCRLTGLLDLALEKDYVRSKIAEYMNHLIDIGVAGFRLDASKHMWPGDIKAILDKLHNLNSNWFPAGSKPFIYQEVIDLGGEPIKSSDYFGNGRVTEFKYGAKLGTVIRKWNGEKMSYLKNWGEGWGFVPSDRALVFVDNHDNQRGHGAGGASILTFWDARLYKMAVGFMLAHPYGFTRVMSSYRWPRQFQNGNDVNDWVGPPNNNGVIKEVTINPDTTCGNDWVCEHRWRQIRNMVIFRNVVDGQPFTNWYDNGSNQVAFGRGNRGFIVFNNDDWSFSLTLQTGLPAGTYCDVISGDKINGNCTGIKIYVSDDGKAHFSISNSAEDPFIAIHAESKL
Procedure: as §1, with “Assay buffer was either 52.5 mmol/L 4-(2-hydroxyethyl)-1-piperazine-ethanesulfonic acid (HEPES) buffer, pH 7.15, 87 mmol/L sodium chloride, 12.6 mmol/L magnesium chloride, 0.075 mmol/L calcium chloride (HEPES buffer) or 50 mmol/L MES, pH 6.0, 350 mmol/L sodium chloride, 6 mmol/L calcium acetate, 900 mmol/L KSCN (MES buffer).” left out

salivary amylase [4] = target: T3, salivary amylase; experiment: Immunoinhibition by MABs, salivary amylase, oligosaccharide substrates; assay type: biochemical; details: salivary isoenzyme, 20 U/I (G5, G7 substrates) or 600 U/I (G3 substrates), 100% = no MAB
Procedure: as §1
When both MABs were used, MAB 88E8 concentrations were varied in the presence of 10 mg/L MAB 66C7. At an antibody concentration of 10 mg/L, MAB 88E8 inhibits 98% of salivary amylase activity in HEPES buffer and 34% of salivary amylase activity in MES buffer. MAB 66C7 increases salivary amylase activity in HEPES buffer and has no effect on salivary amylase activity in MES buffer. Using a mixture of MABs 88E8 and 66C7 at concentrations of […], >99% of salivary amylase activity is inhibited in HEPES buffer and 73% of salivary amylase activity is inhibited in MES buffer. When the pH of the MES buffer was increased from 6.0 to 6.5 and the concentration of KSCN was decreased from 900 mmol/L to 300 mmol/L, >97% of salivary amylase activity was inhibited by MAB 88E8.

pancreatic amylase [5] = target: T4, pancreatic amylase; experiment: Immunoinhibition by MABs, pancreatic amylase, oligosaccharide substrates; assay type: biochemical; details: pancreatic isoenzyme, 40 U/I (G5, G7 substrates) or 400 U/I (G3 substrates), 100% = no MAB
Procedure: as §1

thrombin [6] = target: T2, thrombin; experiment: Inhibition of substrate cleavage by α2-macroglobulin, thrombin; assay type: biochemical; set-up: Human thrombin, bovine chymotrypsin; purchased Sigma Chemical Co. (thrombin); Calbiochem (α2-macroglobulin); details: excess inhibitor
Procedure: as §2

[7] = tested on: C[C@H](NC(=O)CCC(=O)O)C(=O)N[C@@H](C)C(=O)N1CCC[C@H]1C(=O)N[C@@H](Cc1ccccc1)C(=O)Nc1ccc([N+](=O)[O-])cc1; experiment: purified protein, by the assay type; details: other: 37° C., means of triplicates, pH 7.8
20S proteasomes = target: T5, 20S proteasomes (Methanosarcina thermophila, UniProt Q9P992); experiment: Substrate cleavage by 20S proteasomes; assay type: biochemical
T5 construct: purchased Calbiochem (La Jolla, Calif.); host or cells: Escherichia coli
T5 sequence (Q9P992 10-210): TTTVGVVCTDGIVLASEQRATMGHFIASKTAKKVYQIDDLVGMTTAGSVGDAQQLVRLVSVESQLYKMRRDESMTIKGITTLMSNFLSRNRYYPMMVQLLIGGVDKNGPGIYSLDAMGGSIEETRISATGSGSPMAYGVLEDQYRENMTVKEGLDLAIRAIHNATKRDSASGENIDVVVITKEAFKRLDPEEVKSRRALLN
T5 sequence (Q59565 1-247 partner): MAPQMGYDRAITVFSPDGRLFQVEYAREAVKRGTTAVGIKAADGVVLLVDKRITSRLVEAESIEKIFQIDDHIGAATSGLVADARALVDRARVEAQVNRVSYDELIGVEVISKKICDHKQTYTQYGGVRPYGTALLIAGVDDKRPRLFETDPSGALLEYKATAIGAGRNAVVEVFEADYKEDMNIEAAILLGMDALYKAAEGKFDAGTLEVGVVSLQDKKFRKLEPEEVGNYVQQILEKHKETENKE
Procedure: Enzyme assays. Assays of proteasome activity were performed at 37° C. unless otherwise indicated. […] Reactions were in a buffer consisting of 100 mM Tris(hydroxymethyl)aminomethane, pH 7.2 with 1 mM dithiothreitol.

Compound: CC[C@@H](C)[C@@H](N)C(=O)N1CCC[C@H]1C(=O)N[C@@H](CCCNC(=N)N)C(=O)Nc1ccc([N+](=O)[O-])cc1 [D-Ile-Pro-Arg-pNA] (H-[dI]-Pro-Arg-pNA)
Inhibition of trypsin activity by excess α2-macroglobulin (trypsin): 40-50% | Km (thrombin [1]): 12 µM | kcat (thrombin [1]): 105 S^−1

Compound: C[C@H](NC(=O)CCC(=O)O)C(=O)N[C@@H](C)C(=O)N1CCC[C@H]1C(=O)N[C@@H](Cc1ccccc1)C(=O)Nc1ccc([N+](=O)[O-])cc1 [Suc-Ala-Ala-Pro-Phe-pNA, succinyl-Ala-Ala-Pro-Phe-pNA] (Suc-AAPF-pNA)
Maximal inhibition of chymotrypsin activity by excess α2-macroglobulin (chymotrypsin; increasing α2-macroglobulin added to a fixed amount of chymotrypsin): about 60%

Km (salivary amylase [2]): 400 µM | Km (pancreatic amylase [3]): 280 µM | % activity with MAB 88E8 + 66C7 (salivary amylase [4]): 2% | % activity with MAB 66C7 (salivary amylase [4]; MAB 10 mg/L): 105% | % activity with MAB 88E8 (salivary amylase [4]; MAB 10 mg/L): 6% | % activity with MAB 88E8 + 66C7 (pancreatic amylase [5]): 95% | % activity with MAB 66C7 (pancreatic amylase [5]; MAB 10 mg/L): 103% | % activity with MAB 88E8 (pancreatic amylase [5]; MAB 10 mg/L): 101%
Compound: O=[N+]([O-])c1ccc(OC2OC(CO)C(OC3OC(CO)C(OC4OC(CO)C(OC5OC(CO)C(OC6OC(CO)C(O)C(O)C6O)C(O)C5O)C(O)C4O)C(O)C3O)C(O)C2O)cc1 [Substrate G5pNP, p-nitrophenyl-α-D-maltopentaoside]

Compound: N=C(N)NCCC[C@H](NC(=O)[C@@H]1CCCCN1C(=O)[C@H](N)Cc1ccccc1)C(=O)Nc1ccc([N+](=O)[O-])cc1 [D-Phe-Pip-Arg-pNA]
Km (thrombin [1]): 6.1 µM | kcat (thrombin [1]): 65 S^−1 | Inhibition of thrombin activity by excess α2-macroglobulin (thrombin [6]): 40-50%

Compound: CC(=O)N[C@H](Cc1ccccc1)C(=O)N1CCCC[C@H]1C(=O)N[C@@H](CCCNC(=N)N)C(=O)Nc1ccc([N+](=O)[O-])cc1 [Ac-D-Phe-Pip-Arg-pNA]
Km (thrombin [1]): 23 µM | kcat (thrombin [1]): 3.0 S^−1

Compound: bovine chymotrypsin (Bos taurus)
Km [7]: 40 µM | kcat [7]: 120 s⁻¹ | kcat/Km [7]: 3e+06 M⁻¹ s⁻¹

Compound: succinyl-Ala-Ala-Phe-p-nitroanilide [Suc-Ala-Ala-Phe-pNA]
Rate of substrate cleavage by 20s proteasomes (20S proteasomes; each substrate at 1 mM, 37° C., mean ± SD): 0.0061 ± 0.0001 ΔA405/10 min | Rate of cleavage greater than Ala-Ala-Phe-pNA (20S proteasomes; substrate 0.5-3 mM, 30-50° C.): 50-100% | Rate Plus α2-M (chymotrypsin; chymotrypsin 2.5 μg/ml, 0.5 mM substrate, after incubation with excess α2-macroglobulin (250 μ/ml), means ± SD): 12.3 ± 0.1 µmol/L/min | Rate Minus α2-M (chymotrypsin; chymotrypsin 2.5 μg/ml, 0.5 mM substrate, before incubation with α2-macroglobulin, means ± SD): 21.7 ± 0.2 µmol/L/min | Inhibition of substrate cleavage by α2-macroglobulin (chymotrypsin; chymotrypsin 2.5 μg/ml, 0.5 mM substrate, excess α2-macroglobulin): 43%
